The compounds below were run against T1, Inhibitor of nuclear factor kappa-B kinase subunit beta (Homo sapiens, UniProt O14920) (assay: Inhibition of human recombinant C-terminal FLAG-epitope-tagged IKK2 expressed in baculovirus using biotinylated IkappaBalpha peptide as substrate assessed as decrease in [gamma-33P]-ATP incorporation in substrate after 30 mins by scintillation counting method).
T1 sequence (O14920 whole entry): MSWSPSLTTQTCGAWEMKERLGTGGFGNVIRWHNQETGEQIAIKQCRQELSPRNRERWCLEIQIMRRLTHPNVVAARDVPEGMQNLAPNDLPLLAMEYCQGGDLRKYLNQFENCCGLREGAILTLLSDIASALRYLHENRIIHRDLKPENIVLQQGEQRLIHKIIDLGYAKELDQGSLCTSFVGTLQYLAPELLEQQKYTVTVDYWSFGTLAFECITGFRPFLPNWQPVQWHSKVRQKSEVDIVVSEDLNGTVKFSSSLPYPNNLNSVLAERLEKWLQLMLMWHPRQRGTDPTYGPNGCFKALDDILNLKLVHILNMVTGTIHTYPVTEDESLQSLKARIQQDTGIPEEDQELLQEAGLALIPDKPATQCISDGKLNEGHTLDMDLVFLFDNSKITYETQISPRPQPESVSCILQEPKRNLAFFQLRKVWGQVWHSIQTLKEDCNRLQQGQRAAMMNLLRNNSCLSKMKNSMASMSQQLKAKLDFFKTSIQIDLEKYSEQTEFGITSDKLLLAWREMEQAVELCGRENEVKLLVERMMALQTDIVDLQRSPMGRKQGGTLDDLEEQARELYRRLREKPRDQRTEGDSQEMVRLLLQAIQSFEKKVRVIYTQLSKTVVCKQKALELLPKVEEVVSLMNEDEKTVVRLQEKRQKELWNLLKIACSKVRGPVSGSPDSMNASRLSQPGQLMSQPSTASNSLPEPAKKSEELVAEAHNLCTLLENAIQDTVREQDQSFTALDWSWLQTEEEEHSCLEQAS
`CCCS(=O)(=O)c1ccc(-n2nc(C(N)=O)c3c2-c2cc(NS(C)(=O)=O)ccc2CC3)cc1` showed an IC50 of 1 to 10 µM. `CN(C)S(=O)(=O)c1ccc(-n2nc(C(N)=O)c3c2-c2cc(NC(=O)c4cccc(Cl)c4)ccc2CC3)cc1` was tested, and the IC50 was 1 to 10 µM. `CCN1CCN(c2cc(C(=O)Nc3ccc4c(c3)-c3c(c(C(N)=O)nn3-c3ccc(F)cc3)CC4)c(Cl)cn2)CC1` gave an IC50 of at most 1 µM. In the case of `CS(=O)(=O)c1ccc(-n2nc(C(N)=O)c3c2-c2cc(NC(=O)c4cc(Cl)ncc4Cl)ccc2CC3)cc1`, the IC50 is reported as at most 1 µM. Compound `CC1Cc2c(C(N)=O)nn(-c3ccc(F)cc3)c2-c2cc(NC(=O)c3ccncc3Cl)ccc21` (stereo not given) has an IC50 of at most 1 µM. Compound `CN1CCN(c2cc(C(=O)Nc3ccc4c(c3)-c3c(c(C(N)=O)nn3-c3ccc(S(C)(=O)=O)cc3)CC4)c(Cl)cn2)CC1` has an IC50 of at most 1 µM. For `CC1Cc2c(C(N)=O)nn(-c3ccc(F)cc3F)c2-c2cc(NC(=O)c3ccncc3Cl)ccc21` (stereo not given), the IC50 was at most 1 µM. For `NC(=O)c1nn(-c2ccc(F)cc2)c2c1CCc1ccc(NC(=O)c3cc(N4CCN(CCO)CC4)ncc3Cl)cc1-2`, the IC50 was at most 1 µM. `CN1CCN(c2ncc(Cl)c(C(=O)Nc3ccc4c(c3)-c3c(c(C(N)=O)nn3-c3ccc(F)cc3)CC4)n2)CC1` was tested, and the IC50 was at most 1 µM. `NC(=O)c1nn(-c2ccc3c(c2)OCO3)c2c1CCc1ccc(NC(=O)c3nc(CN4CCOCC4)ccc3Cl)cc1-2` was tested, and the IC50 was at most 1 µM. `NC(=O)c1nn(-c2ccc(F)cc2)c2c1CCc1ccc(NC(=O)c3cc(-c4ccncc4)ncc3Cl)cc1-2` was tested, and the IC50 was at most 1 µM. With `NC(=O)c1nn(-c2ccc(S(=O)(=O)N3CCOCC3)cc2)c2c1CCc1ccc(N)cc1-2` the IC50 was 1 to 10 µM. Work on `CCCS(=O)(=O)c1ccc(-n2nc(C(N)=O)c3c2-c2cc(NC(=O)c4cc(N)ccc4Cl)ccc2CC3)cc1` yielded an IC50 of at most 1 µM. For `CCCS(=O)(=O)c1ccc(-n2nc(C(N)=O)c3c2-c2cc(NC(=O)c4cccnc4Cl)ccc2CC3)cc1`, the IC50 was 1 to 10 µM. With `CC(=O)c1ccc(-n2nc(C(N)=O)c3c2-c2cc(NC(=O)c4cccnc4Cl)ccc2CC3)cc1` the IC50 was 1 to 10 µM. For `NC(=O)c1nn(-c2ccc(F)cc2)c2c1CCc1ccc(NC(=O)c3cc(CCN4CCOCC4)ncc3Cl)cc1-2`, the IC50 was at most 1 µM. `N#Cc1cc(C(=O)Nc2ccc3c(c2)-c2c(c(C(N)=O)nn2-c2ccc(F)cc2)CC3)c(Cl)cn1` showed an IC50 of at most 1 µM. Compound `NC(=O)c1nn(-c2ccc3c(c2)OCO3)c2c1CCc1ccc(NC(=O)c3cc(CCN4CCOCC4)ncc3Cl)cc1-2` has an IC50 of at most 1 µM. With `C[S+]([O-])c1ccc(-n2nc(C(N)=O)c3c2-c2cc(NC(=O)c4cccnc4Cl)ccc2CC3)cc1` (stereo not given) the IC50 was at most 1 µM. `C[C@@H]1CN(c2cc(C(=O)Nc3ccc4c(c3)-c3c(c(C(N)=O)nn3-c3ccc(F)cc3)CC4)c(Cl)cn2)C[C@H](C)N1C` gave an IC50 of at most 1 µM. Work on `CC1Cc2c(C(N)=O)nn(-c3ccc(F)cc3)c2-c2cc(NC(=O)c3cccnc3Cl)ccc21` (stereo not given) yielded an IC50 of at most 1 µM. Compound `C[S+]([O-])c1ccc(-n2nc(C(N)=O)c3c2-c2cc(NS(C)(=O)=O)ccc2CC3)cc1` (stereo not given) has an IC50 of 1 to 10 µM. For `C[C@@H]1CN(c2cc(C(=O)Nc3ccc4c(c3)-c3c(c(C(N)=O)nn3-c3ccc(F)cc3)CC4)c(Cl)cn2)C[C@H](C)N1`, the IC50 was at most 1 µM. `CN1CCN(c2ncc(Cl)c(C(=O)Nc3ccc4c(c3)-c3c(c(C(N)=O)nn3-c3ccc5c(c3)OCO5)CC4)n2)CC1` showed an IC50 of at most 1 µM. With `CCCS(=O)(=O)c1ccc(-n2nc(C(N)=O)c3c2-c2cc(N)ccc2CC3)cc1` the IC50 was 1 to 10 µM. With `CCCS(=O)(=O)c1ccc(-n2nc(C(N)=O)c3c2-c2cc(NC(=O)c4cc(NC(=O)OC(C)(C)C)ccc4Cl)ccc2CC3)cc1` the IC50 was 1 to 10 µM. `CSc1ccc(-n2nc(C(N)=O)c3c2-c2cc(NC(=O)c4ccccc4Cl)ccc2CC3)cc1` gave an IC50 of 1 to 10 µM. For `NC(=O)c1nn(-c2ccc(S(=O)(=O)N3CC=CC3)cc2)c2c1CCc1ccc(N)cc1-2`, the IC50 was 1 to 10 µM. Compound `CS(=O)(=O)c1ncc(Cl)c(C(=O)Nc2ccc3c(c2)-c2c(c(C(N)=O)nn2-c2ccc4c(c2)OCO4)CC3)n1` has an IC50 of at most 1 µM. Work on `C#CCN(CC#C)S(=O)(=O)c1ccc(-n2nc(C(N)=O)c3c2-c2cc(NC(=O)c4ccccc4Cl)ccc2CC3)cc1` yielded an IC50 of 1 to 10 µM. Compound `CN1CC=C(c2cc(C(=O)Nc3ccc4c(c3)-c3c(c(C(N)=O)nn3-c3ccc(F)cc3)CC4)c(Cl)cn2)CC1` has an IC50 of at most 1 µM. Compound `CN(C)CCNS(=O)(=O)c1ccc(-n2nc(C(N)=O)c3c2-c2cc(N)ccc2CC3)cc1` has an IC50 of 1 to 10 µM. Work on `CN(C)CCc1cc(C(=O)Nc2ccc3c(c2)-c2c(c(C(N)=O)nn2-c2ccc(F)cc2)CC3)c(Cl)cn1` yielded an IC50 of at most 1 µM. In the case of `CC(=O)Nc1ccc2c(c1)-c1c(c(C(N)=O)nn1-c1ccc(S(=O)(=O)N(C)C)cc1)CC2`, the IC50 is reported as 1 to 10 µM. For `C=CCN(CC=C)S(=O)(=O)c1ccc(-n2nc(C(N)=O)c3c2-c2cc(NS(C)(=O)=O)ccc2CC3)cc1`, the IC50 was 1 to 10 µM. `CNCC(=O)Nc1ccc2c(c1)-c1c(c(C(N)=O)nn1-c1ccc3c(c1)OCO3)CC2` was tested, and the IC50 was 1 to 10 µM. Work on `CC1Cc2c(C(N)=O)nn(-c3ccc(F)cc3)c2-c2cc(NC(=O)c3cc(N4CCN(C)CC4)ccc3Cl)ccc21` (stereo not given) yielded an IC50 of at most 1 µM. `C[S+]([O-])c1ccc(-n2nc(C(N)=O)c3c2-c2cc(NC(=O)c4ccncc4Cl)ccc2CC3)cc1` (stereo not given) gave an IC50 of at most 1 µM. `C[S+]([O-])c1ccc(-n2nc(C(N)=O)c3c2-c2cc(NC(=O)c4ccccc4Cl)ccc2CC3)cc1` (stereo not given) was tested, and the IC50 was at most 1 µM. `CCS(=O)(=O)c1ccc(-n2nc(C(N)=O)c3c2-c2cc(NS(C)(=O)=O)ccc2CC3)cc1` showed an IC50 of 1 to 10 µM. Work on `Cc1cc(Cl)ncc1C(=O)Nc1ccc2c(c1)-c1c(c(C(N)=O)nn1-c1ccc3c(c1)OCO3)CC2` yielded an IC50 of at most 1 µM. Work on `C[S+]([O-])c1ccc(-n2nc(C(N)=O)c3c2-c2cc(NC(=O)c4cc(N)ccc4Cl)ccc2CC3)cc1` (stereo not given) yielded an IC50 of at most 1 µM. `NCc1ccc(Cl)c(C(=O)Nc2ccc3c(c2)-c2c(c(C(N)=O)nn2-c2ccc4c(c2)OCO4)CC3)n1` gave an IC50 of 1 to 10 µM. `NCc1cc(C(=O)Nc2ccc3c(c2)-c2c(c(C(N)=O)nn2-c2ccc4c(c2)OCO4)CC3)c(Cl)cn1` gave an IC50 of at most 1 µM. Work on `CC1Cc2c(C(N)=O)nn(-c3ccc(N)cc3F)c2-c2cc(NC(=O)c3ccncc3Cl)ccc21` (stereo not given) yielded an IC50 of at most 1 µM. Compound `NC(=O)c1nn(-c2ccc(F)cc2)c2c1CCc1ccc(NC(=O)c3cc(CN4CCOCC4)ncc3Cl)cc1-2` has an IC50 of at most 1 µM. Compound `NC(=O)c1nn(-c2ccncc2)c2c1CCc1ccc(NC(=O)c3cc(Cl)ncc3Cl)cc1-2` has an IC50 of at most 1 µM. In the case of `NC(=O)c1nn(-c2ccc3c(c2)OCO3)c2c1CCc1ccc(NC(=O)CNCC3CC3)cc1-2`, the IC50 is reported as 1 to 10 µM. `NC(=O)c1nn(-c2ccc(S(=O)(=O)CC3CC3)cc2)c2c1CCc1ccc(NC(=O)c3ccccc3Cl)cc1-2` gave an IC50 of 1 to 10 µM. `CC(O)c1ccc(-n2nc(C(N)=O)c3c2-c2cc(NC(=O)c4cccnc4Cl)ccc2CC3)cc1` (stereo not given) showed an IC50 of at most 1 µM. In the case of `C[S+]([O-])c1ccc(-n2nc(C(N)=O)c3c2-c2cc(NC(=O)c4cc5c(cc4Cl)OCO5)ccc2CC3)cc1` (stereo not given), the IC50 is reported as at most 1 µM. `NC(=O)c1nn(-c2ccc3c(c2)OCO3)c2c1CCc1ccc(NC(=O)CNC3CCCCC3)cc1-2` showed an IC50 of 1 to 10 µM. `C#Cc1ccc(-n2nc(C(N)=O)c3c2-c2cc(NC(=O)c4cccnc4Cl)ccc2CC3)cc1` showed an IC50 of 1 to 10 µM. `NCCCS(=O)(=O)c1ccc(-n2nc(C(N)=O)c3c2-c2cc(NC(=O)c4cccnc4Cl)ccc2CC3)cc1` was tested, and the IC50 was 1 to 10 µM. `N#Cc1cc(C(=O)Nc2ccc3c(c2)-c2c(c(C(N)=O)nn2-c2ccc4c(c2)OCO4)CC3)c(Cl)cn1` gave an IC50 of at most 1 µM. In the case of `NC(=O)c1nn(-c2ccc3c(c2)OCO3)c2c1CCc1ccc(NC(=O)CN3CCCC3)cc1-2`, the IC50 is reported as 1 to 10 µM. Work on `CN1CCN(c2cc(C(=O)Nc3ccc4c(c3)-c3c(c(C(N)=O)nn3-c3ccncc3)CC4)c(Cl)cn2)CC1` yielded an IC50 of at most 1 µM. For `CCS(=O)(=O)c1ccc(-n2nc(C(N)=O)c3c2-c2cc(N)ccc2CC3)cc1`, the IC50 was 1 to 10 µM. Compound `N#Cc1ccc(Cl)c(C(=O)Nc2ccc3c(c2)-c2c(c(C(N)=O)nn2-c2ccc4c(c2)OCO4)CC3)n1` has an IC50 of 1 to 10 µM. `CN(C)CCNS(=O)(=O)c1ccc(-n2nc(C(N)=O)c3c2-c2cc(NC(=O)c4ccccc4Cl)ccc2CC3)cc1` showed an IC50 of at most 1 µM. `CCCCS(=O)(=O)c1ccc(-n2nc(C(N)=O)c3c2-c2cc(NC(=O)c4ccccc4Cl)ccc2CC3)cc1` was tested, and the IC50 was 1 to 10 µM. `CN(C)CCNc1cc(C(=O)Nc2ccc3c(c2)-c2c(c(C(N)=O)nn2-c2ccc(F)cc2)CC3)c(Cl)cn1` showed an IC50 of at most 1 µM. In the case of `CC(C)N1CCN(c2cc(C(=O)Nc3ccc4c(c3)-c3c(c(C(N)=O)nn3-c3ccc(F)cc3)CC4)c(Cl)cn2)CC1`, the IC50 is reported as at most 1 µM. In the case of `C[C@H]1CN(c2cc(C(=O)Nc3ccc4c(c3)-c3c(c(C(N)=O)nn3-c3ccc(F)cc3)CC4)c(Cl)cn2)CCN1C`, the IC50 is reported as at most 1 µM. With `C[C@@H]1CN(c2cc(C(=O)Nc3ccc4c(c3)-c3c(c(C(N)=O)nn3-c3ccc(F)cc3)CC4)c(Cl)cn2)CCN1` the IC50 was at most 1 µM. Work on `NC(=O)c1nn(-c2ccc(F)cc2)c2c1CCc1ccc(NC(=O)c3ccnc(N4CCOCC4)c3)cc1-2` yielded an IC50 of at most 1 µM. Work on `NC(=O)c1nn(-c2ccc(F)cc2)c2c1CCc1ccc(NC(=O)c3cc(N4CCCNCC4)ncc3Cl)cc1-2` yielded an IC50 of at most 1 µM. For `COCCN1CCN(c2cc(C(=O)Nc3ccc4c(c3)-c3c(c(C(N)=O)nn3-c3ccc(F)cc3)CC4)c(Cl)cn2)CC1`, the IC50 was at most 1 µM. `C[C@@H]1CN(c2cc(C(=O)Nc3ccc4c(c3)-c3c(c(C(N)=O)nn3-c3ccc(F)cc3)CC4)c(Cl)cn2)CCN1C` was tested, and the IC50 was at most 1 µM. Compound `C[C@H]1CN(c2cc(C(=O)Nc3ccc4c(c3)-c3c(c(C(N)=O)nn3-c3ccc(F)cc3)CC4)c(Cl)cn2)CCN1` has an IC50 of at most 1 µM.
